# Results taken from patent publication US10391080B2, “Ketorolac for the treatment of cancer” (Cipla Limited, priority 2016, dated 2019).
# Where two headings read alike, the source gives them in different places.
# Columns and labels:
# [1] = system: RXF 1183L; test: In vitro 2D assay, CellTiter-Blue Cell Viability Assay; format: cell-based; details: Homo sapiens, 96 h treatment
# Protocol: (§1) The objective of this study was to investigate the in-vitro anticancer activity of ketorolac. Antitumor activity was assessed in ten selected renal cancer cell lines by using the CellTiter-Blue Cell Viability Assay. The human renal cancer cell lines RXF 1183L, RXF 1220L, RXF 1781L, RXF 393L, RXF 486L, RXF 786-0, RXF A-498, RXF ACHN, RXF Caki-1 and RXF SN12C were used. RXF 1183L, RXF 1220L, RXF 1781L, RXF 393L and RXF 486L were established at Oncotest from the corresponding human patient-derived xenograft. The cell lines 786-0, A-498, Caki-1 and SN12C were purchased from NCI (National Cancer Institute, Bethesda, Md., USA). ACHN was purchased from ECACC (European Collection of Cell Cultures, Salisbury, UK). Authenticity of cell lines was confirmed at the DSMZ by STR (short tandem repeat) analysis, a PCR based DNA-fingerprinting methodology.
# (§2) Cell lines were routinely passaged once or twice weekly and maintained in culture for up to 20 passages. All cells were grown at 37° C. in a humidified atmosphere with 5% CO2 in RPMI 1640 medium (25 mM HEPES, with L-glutamine, #FG1385, Biochrom, Berlin, Germany) supplemented with 10% (v/v) fetal calf serum (Sigma, Taufkirchen, Germany) and 0.1 mg/mL gentamicin (Life Technologies, Karlsruhe, Germany).
# (§3) Ketorolac was dissolved at a concentration of 60 mM in cell culture media. Starting with this stock solution, dilutions were made using cell culture media resulting in final test concentrations of 12000, 7800, 6000, 4200, 3000, 1800, 600, 420, 180, 60 μM. Precipitation was not observed.
# (§4) The CellTiter-Blue Cell Viability Assay was used according to manufacturer's instructions. Briefly, cells were harvested from exponential phase cultures, counted and plated in 96-well flat-bottom microtiter plates at a cell density of 4,000-12,000 cells/well depending on the cell line's growth rate. After a 24 h recovery period to allow the cells to resume exponential growth, ketorolac was applied at 8 to 10 concentrations in duplicate and treatment continued for 96 h. After 96 h treatment of cells, 20 μL/well CellTiter-Blue® reagent was added. Following an incubation period of up to four hours, fluorescence (FU) was measured by using the Enspire Multimode Plate Reader (excitation λ=531 nm, emission λ=615 nm).
# (§5) For calculations, the mean values of duplicate/quadruplicate (untreated control) data were used. Sigmoidal concentration-response curves were fitted to the data points (T/C values) obtained for each cell line using 4 parameter non-linear curve fit.
# [2] = system: RXF 786-0; test: as above; format: cell-based; details: Homo sapiens, 786-O, 96 h treatment
# Protocol: as §1, §2, §3, §4, §5
# [3] = system: RXF 486L; test: as above; format: cell-based; details: Homo sapiens, 96 h treatment
# Protocol: as §1, §2, §3, §4, §5
# [4] = system: RXF 393L; test: as above; format: cell-based; details: Homo sapiens, 96 h treatment
# Protocol: as §1, §2, §3, §4, §5
# [5] = system: A498 cells; test: In vivo animal efficacy study, subcutaneous A498 tumor fragments; parameters: species or system female athymic nude mice
# Protocol: 10 Healthy female athymic nude mice were recruited for the donor cell inoculation. Animals were subcutaneously injected at flank region with 10 million A498 cells suspended in 200 μl of media and matrigel. Animals were monitored for solid tumor growth. […] Tumors were fragmented in to ˜30 mg size. […] [table] The tumor sizes were measured weekly twice from the date of tumor appearance till the end of the experiment. Tumor size was measured by digital vernier caliper (MITUTOYO) by measuring length (L=longest axis) and width (W=shortest axis). Tumor Volume was calculated using the formula: […] Form the tumor volume data mean tumor volume and % tumor growth inhibition (% TGI) were calculated (SEM=standard error of mean).
# [6] = system: 10 human tumor xenograft-derived cell suspensions or tumor cell lines of renal cancer; test: In vitro 3D assay, clonogenic assay, whole panel; format: cell-based; details: geometric mean of 10 renal tumor models, 3D colony formation
# Protocol: Ketorolac was characterized for its ability to inhibit anchorage independent growth and ex vivo colony formation of tumor cells in semi-solid medium. The compound was tested against 10 human tumor xenograft-derived cell suspensions or tumor cell lines of renal cancer.
# Cell lines were routinely passaged one or twice weekly. […] The percentage of viable cells was determined in a Neubauer-hemocytometer using trypan blue exclusion.
# Tumor xenografts (patient-derived, as well as cell line-derived xenografts) were passaged as subcutaneous xenografts in NMRI nu/nu mice. At a tumor volume of 400-1000 mm^3 tumor-bearing mice were sacrificed and tumors were collected under sterile conditions without delay according to the relevant Oncotest SOPs and the relevant animal welfare guidelines published by the FELASA and the GV-SOLAS. […] The percentage of viable cells was determined in a Neubauer-hemocytometer using trypan blue exclusion. Aliquots of the cells were frozen down, and stored in liquid nitrogen. On each day of an experiment, a frozen aliquot of tumor cells was thawed and used for preparation of assay plates.
# The clonogenic assay was carried out in a 96 well plate format using ultra low attachment plates. […] Every plate included six untreated control wells and drug-treated groups in duplicate at 9 concentrations. […] At the time of maximum colony formation, counts were performed with an automatic image analysis system (Celllnsight NXT, Thermo Scientific). 48 hours prior to evaluation, vital colonies were stained with a sterile aqueous solution of 2-(4-iodophenyl)-3-(4-nitrophenyl)-5-phenyltetrazolium chloride (1 mg/ml, 100 μl/well).
# [7] = Ketorolac 5 mg/kg p.o. q.d. × 21 (G3), day 1
# [8] = Ketorolac 5 mg/kg p.o. q.d. × 21 (G3), day 6
# [9] = Ketorolac 5 mg/kg p.o. q.d. × 21 (G3), day 9
# [10] = Ketorolac 5 mg/kg p.o. q.d. × 21 (G3), day 13
# [11] = Ketorolac 5 mg/kg p.o. q.d. × 21 (G3), day 16
# [12] = Ketorolac 10 mg/kg p.o. q.d. × 21 (G4), day 1
# [13] = Ketorolac 10 mg/kg p.o. q.d. × 21 (G4), day 6
# [14] = Ketorolac 10 mg/kg p.o. q.d. × 21 (G4), day 9
# [15] = Ketorolac 10 mg/kg p.o. q.d. × 21 (G4), day 13
# [16] = Ketorolac 10 mg/kg p.o. q.d. × 21 (G4), day 16
smiles,measurement,setting,value
"O=C(c1ccccc1)c1ccc2n1CCC2C(=O)O (racemic) [Ketorolac, (±)-5-benzoyl-2,3-dihydro-1H-pyrrolizine-1-carboxylic acid]",IC50,[1]; read-out: Absolute IC50,2.4 mM
same,IC50,[1]; read-out: Relative IC50,2.67 mM
same,IC50,[2]; read-out: Absolute IC50,3.25 mM
same,IC50,[2]; read-out: Relative IC50,3.85 mM
same,IC50,[3]; read-out: Absolute IC50,3.15 mM
same,IC50,[3]; read-out: Relative IC50,3.29 mM
same,IC50,[4]; read-out: Absolute IC50,3.14 mM
same,IC50,[4]; read-out: Relative IC50,3.75 mM
same,Mean Tumor Volume,[5]; [7],145.65 mm^3
same,Tumor Growth Inhibition (% TGI),[5]; [7],1.29%
same,Mean Tumor Volume,[5]; [8],174.13 mm^3
same,Tumor Growth Inhibition (% TGI),[5]; [8],47.54%
same,Mean Tumor Volume,[5]; [9],297.42 mm^3
same,Tumor Growth Inhibition (% TGI),[5]; [9],35.87%
same,Mean Tumor Volume,[5]; [10],460.01 mm^3
same,Tumor Growth Inhibition (% TGI),[5]; [10],25.45%
same,Mean Tumor Volume,[5]; [11],559.69 mm^3
same,Tumor Growth Inhibition (% TGI),[5]; [11],41.77%
same,Mean Tumor Volume,"[5]; Ketorolac 5 mg/kg p.o. q.d. × 21 (G3), day 20",626.62 mm^3
same,Mean Tumor Volume,[5]; [12],145.79 mm^3
same,Tumor Growth Inhibition (% TGI),[5]; [12],1.20%
same,Mean Tumor Volume,[5]; [13],168.10 mm^3
same,Tumor Growth Inhibition (% TGI),[5]; [13],49.36%
same,Mean Tumor Volume,[5]; [14],223.78 mm^3
same,Tumor Growth Inhibition (% TGI),[5]; [14],51.75%
same,Mean Tumor Volume,[5]; [15],215.58 mm^3
same,Tumor Growth Inhibition (% TGI),[5]; [15],65.06%
same,Mean Tumor Volume,[5]; [16],300.44 mm^3
same,Tumor Growth Inhibition (% TGI),[5]; [16],68.75%
same,Mean Tumor Volume,"[5]; Ketorolac 10 mg/kg p.o. q.d. × 21 (G4), day 20",336.27 mm^3
same,IC50,"[6]; Homo sapiens, read-out: Absolute IC50, geometric mean",2.04 mM
same,IC50,"[6]; Homo sapiens, read-out: Relative IC50, geometric mean (mean relative IC50)",2.04 mM
same,IC50,"[6]; read-out: Relative IC50, geometric mean (mean relative IC50)",2.08 mM
